Patent US20050163781A1, “Tissue adhesion formation control” (priority 2002, published 2005)

Legend:
adhesion formation [1] = settings: 0, 1, 2.5, 5, 10 and 20% of oxygen in CO2 pneumoperitoneum for 1 hour, laser lesions, rabbits
adhesion formation [2] = settings: oxygen added to CO2 pneumoperitoneum, intubated mice
Protocol: In adult, female, NMRI (Naval Medical Research Institute) mice adhesions were induced by laparoscopy and evaluated by laparotomy under microscopic view in order to assess similar variables than in the rabbit model. […] The endoscope with an outer sheath for insufflation (total diameter 3.2 mm) was introduced caudal to the xyphoides by open laparoscopy. Survival after different insufflation pressures and duration of pneumoperitoneum was evaluated in non-intubated and intubated mice. […] For the induction of adhesions, after the establishment of the pneumoperitoneum, the 2nd and 3rd ports (14-gauge catheters) were introduced in the left and right flanks under laparoscopic vision. Standardised, opposing, linear lesions in the anti-mesenteric border of uterine horns and in the pelvic sidewalls were performed by monopolar coagulation. After 7 or 28 days adhesions were evaluated by scoring extent, type and tenacity and by a quantitative measurement. In non-intubated mice CO2 pneumoperitoneum at 2.5 cm of water was maintained for 5, 15, 30, 60 and 120 min to evaluate the effect of duration of pneumoperitoneum. […] To confirm this effect and to evaluate the effect of desiccation due to the flow rate though the animal, pneumoperitoneum was maintained for 5 and 60 min without flow and for 60 min with 1 and 10 ml/min of flow rate. […]

O=O [oxygen]
oxygen proportion at which maximal effect (decrease of adhesion formation) was observed (adhesion formation [1]): 5 % of oxygen
oxygen proportion giving half maximal reduction of adhesions (adhesion formation [2]): around 1.5 % of oxygen
oxygen proportion required for maximal response (reduction of adhesions) (adhesion formation [2]): 2-3 % of oxygen
